Test results as given in PubChem BioAssay (NCI).
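Protocol summary: plate cells (96-well), add compound at 5 concentrations, incubate 48 h, interpolate endpoints linearly. GI50 is the concentration that inhibits growth by half. TGI denotes the concentration required for complete inhibition of growth.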

Experiments:
Experiment in all cases: inhibition of tumour cell growth, NCI panel, 48 h
[1] = test system: SF-268 CNS
[2] = test system: M14 melanoma
[3] = test system: NCI-H460 lung
[4] = test system: OVCAR-8 ovarian
[5] = test system: 786-0 renal
[6] = test system: TK-10 renal
[7] = test system: LOX IMVI melanoma
[8] = test system: COLO 205 colon
[9] = test system: MDA-MB-435
[10] = test system: PC-3 prostate

Compound	TGI [1] [µM]	TGI [2] [µM]	TGI [3] [µM]	TGI [4] [µM]	TGI [5] [µM]	TGI [6] [µM]	TGI [7] [µM]	TGI [8] [µM]	TGI [9] [µM]	TGI [10] [µM]	GI50 [1] [µM]	GI50 [2] [µM]	GI50 [3] [µM]	GI50 [10] [µM]	GI50 [4] [µM]	GI50 [5] [µM]	GI50 [6] [µM]	GI50 [7] [µM]	GI50 [8] [µM]	GI50 [9] [µM]
CC1(C)OC(=O)C(c2ccsc2)C(=O)O1	> 100	> 100	> 100	> 100	> 100	> 100	> 100	> 100												
O=C(c1ccccc1)C(c1ccccc1)C1(O)C(=O)Nc2ccc(Br)cc21 (stereo not drawn)	> 100	> 100	> 100	> 100	> 100	> 100		> 100												
C[C@]12CC[C@H](O)CC1CCC[C@@H]2O (stereo partly drawn)	> 100	> 100	> 100	> 100	> 100	> 100	> 100	> 100												
c1ccc2c(c1)-c1nc3ccccc3cc1C2N1CCOCC1 (stereo not drawn)	> 100	> 100		> 100	> 100	> 100	> 100	> 100	> 100	> 100										
COc1ccc2nc3c(cc2c1)C(=O)CC(C(F)(F)F)C3 (stereo not drawn)	> 100	> 100	> 100	> 100	> 100	> 100	> 100	> 55.9		> 100	34.6	0.238	1.87	1.08	1.22	4.36	> 84.1	3.54	0.958	
O=C1C2Cc3ccccc3CN2C(=O)N1CCN1CCOCC1 (stereo not drawn)	> 100	> 100	> 100	> 100	> 100	> 100	> 100	> 100												
Cc1cc(=O)[nH]c2c1C(=O)C(=O)C=C2	43.7	60.9	74	73.9	36.3	> 100		> 100	33.2	> 100	18.7	23.8	27.1	71	32.7	18.7	64.1		> 100	15.1
O=c1c2ccc(Br)cc2nc(-c2ccccc2)n1NC1OC(CO)C(O)C(O)C1O (stereo not drawn)	> 100	> 100	> 100	> 100	> 100	> 100		> 100												
O=c1c(-c2nc3ccccc3[nH]2)cc2ccccc2n1Cc1cn(Cc2ccc(F)cc2)nn1	57.6	0.39	> 100	> 100	11.3	15.8	> 100			> 100	0.259	0.0568	0.0435	0.153	0.139	0.415	0.793	0.084		
COc1ccc2c(c1)cn1c3ccc(OC)cc3[nH]c(=O)c21	1.47	1.4		1.46	1.56	2.44	1.78	0.0294	0.0116	1.59	< 0.0229	0.027		< 0.0154	< 0.0214	< 0.0231	1.17	< 0.0206	< 0.0175	< 0.01
COc1cc(/C=C/C(=O)c2ccc(SC)cc2)cc(OC)c1OC	37.8	22.4	32.6	5.85	20.4	33.5		31.5	25.8	95.3	16	10.5	15	14.2	2.44	6.43	18		13.3	12.4
COc1cc(C2C(Cl)C(=O)N2NC(=O)c2ccccc2O)cc(OC)c1OC (stereo not drawn)	> 10	> 10	> 10	> 10	> 10	> 10	> 10		> 10	> 10										
COc1cc(C2C(C(=O)Nc3ccccc3C)=C(C)NC(C)=C2C(=O)Nc2ccccc2C)ccc1O		> 100	> 100	> 100	> 100	> 100		> 100												
Cc1cc2c(C=O)[nH]nc2c(C#N)c1C	> 100	> 100	> 100	> 100	> 100	> 100	> 100	> 100												
O=C(NCCOCCO)c1ccc(O)cc1	> 100	> 100	> 100	> 100	> 100	> 100	> 100	> 100												
CCn1cc(C(=O)O)c(=O)c2cc(F)c(N3CCNCC3)nc21	> 100	> 100	> 100	> 100	> 100	> 100	> 100	> 100												
CSc1nnc2n1-c1ccccc1SCC2	> 100	> 100	> 100	> 100	> 100	> 100	> 100	> 100												
CN=C(NC#N)NCc1ccccc1	> 100	> 100	> 100	> 100	> 100	> 100	> 100	> 100												
C/C(=N\O)c1ccc(Nc2cc(-c3ccccc3)nc3c(O)cccc23)cc1		31.3		29.2	31.8	29.8	24	42.6	26.6	41.9		16.2		17.1	6.99	17.2	12	6.71	20.7	6.72
CCCCCCCCCCCCCCCc1nc(SCC(=O)O)n[nH]1	> 100	42.4	> 100	> 100	42.1	> 100	> 100													
